Reference: US20230026696A1, “TRPV4 RECEPTOR LIGANDS” (UNIVERSITY OF UTAH RESEARCH FOUNDATION, priority 2019, published 2023)
Structures can show the parent of a compound that is named as a salt. Blank lines part the entries; values can stand above or below the molecule they belong to.

Key:
human TRPV4 = target: T1, human TRPV4 (Homo sapiens, UniProt Q9HBA0); assay: Fluorometric cell-based Ca2+ flux assay, HEK-293 cells stably overexpressing human TRPV4; settings: for IC50: HEK-293 stably overexpressing human TRPV4, agonist GSK1016790A 30 nM
T1 construct: expressed in transfected cells
T1 sequence (Q9HBA0 whole entry): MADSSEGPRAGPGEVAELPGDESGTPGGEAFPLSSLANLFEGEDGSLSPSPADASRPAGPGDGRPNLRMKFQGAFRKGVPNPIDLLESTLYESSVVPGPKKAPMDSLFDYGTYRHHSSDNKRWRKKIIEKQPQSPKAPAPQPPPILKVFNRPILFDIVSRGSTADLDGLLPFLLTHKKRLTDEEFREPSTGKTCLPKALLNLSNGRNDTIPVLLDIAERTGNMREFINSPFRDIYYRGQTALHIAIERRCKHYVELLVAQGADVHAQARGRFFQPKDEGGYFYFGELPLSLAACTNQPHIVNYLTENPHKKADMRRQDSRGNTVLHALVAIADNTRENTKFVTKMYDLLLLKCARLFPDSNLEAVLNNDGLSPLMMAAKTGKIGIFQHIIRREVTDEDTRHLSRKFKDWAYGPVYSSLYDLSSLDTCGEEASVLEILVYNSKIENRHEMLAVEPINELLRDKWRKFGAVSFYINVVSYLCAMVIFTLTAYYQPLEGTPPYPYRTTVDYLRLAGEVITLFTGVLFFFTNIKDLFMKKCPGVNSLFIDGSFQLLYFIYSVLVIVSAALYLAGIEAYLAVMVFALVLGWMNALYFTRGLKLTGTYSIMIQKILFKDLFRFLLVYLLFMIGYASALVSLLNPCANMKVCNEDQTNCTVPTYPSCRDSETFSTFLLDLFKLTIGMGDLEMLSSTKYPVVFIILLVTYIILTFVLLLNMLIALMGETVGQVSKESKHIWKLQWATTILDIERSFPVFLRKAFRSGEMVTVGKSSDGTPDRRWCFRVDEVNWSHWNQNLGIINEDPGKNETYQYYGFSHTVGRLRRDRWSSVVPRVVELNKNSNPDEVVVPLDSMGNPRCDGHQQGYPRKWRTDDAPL
How it was run: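 HEK-293 cells stably overexpressing human TRPV4, Fluo 4-loaded, pre-incubated 30 min at 37° C with compound, then stimulated with 30 nM GSK1016790A (final). Max ΔF/s over 1 min, media-corrected, expressed relative to no-antagonist control; IC50 from ≥8 concentrations, ≥3 replicates.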

human TRPA1 = target: T2, human TRPA1 (Homo sapiens, UniProt O75762); assay: Selectivity Ca2+ flux assay, TRPA1 stably over-expressed in HEK-293 cells; format: cell-based; settings: agonist 2,4-ditert butylphenol (50 μM)
T2 construct: expressed in transfected cells
T2 sequence (O75762 whole entry): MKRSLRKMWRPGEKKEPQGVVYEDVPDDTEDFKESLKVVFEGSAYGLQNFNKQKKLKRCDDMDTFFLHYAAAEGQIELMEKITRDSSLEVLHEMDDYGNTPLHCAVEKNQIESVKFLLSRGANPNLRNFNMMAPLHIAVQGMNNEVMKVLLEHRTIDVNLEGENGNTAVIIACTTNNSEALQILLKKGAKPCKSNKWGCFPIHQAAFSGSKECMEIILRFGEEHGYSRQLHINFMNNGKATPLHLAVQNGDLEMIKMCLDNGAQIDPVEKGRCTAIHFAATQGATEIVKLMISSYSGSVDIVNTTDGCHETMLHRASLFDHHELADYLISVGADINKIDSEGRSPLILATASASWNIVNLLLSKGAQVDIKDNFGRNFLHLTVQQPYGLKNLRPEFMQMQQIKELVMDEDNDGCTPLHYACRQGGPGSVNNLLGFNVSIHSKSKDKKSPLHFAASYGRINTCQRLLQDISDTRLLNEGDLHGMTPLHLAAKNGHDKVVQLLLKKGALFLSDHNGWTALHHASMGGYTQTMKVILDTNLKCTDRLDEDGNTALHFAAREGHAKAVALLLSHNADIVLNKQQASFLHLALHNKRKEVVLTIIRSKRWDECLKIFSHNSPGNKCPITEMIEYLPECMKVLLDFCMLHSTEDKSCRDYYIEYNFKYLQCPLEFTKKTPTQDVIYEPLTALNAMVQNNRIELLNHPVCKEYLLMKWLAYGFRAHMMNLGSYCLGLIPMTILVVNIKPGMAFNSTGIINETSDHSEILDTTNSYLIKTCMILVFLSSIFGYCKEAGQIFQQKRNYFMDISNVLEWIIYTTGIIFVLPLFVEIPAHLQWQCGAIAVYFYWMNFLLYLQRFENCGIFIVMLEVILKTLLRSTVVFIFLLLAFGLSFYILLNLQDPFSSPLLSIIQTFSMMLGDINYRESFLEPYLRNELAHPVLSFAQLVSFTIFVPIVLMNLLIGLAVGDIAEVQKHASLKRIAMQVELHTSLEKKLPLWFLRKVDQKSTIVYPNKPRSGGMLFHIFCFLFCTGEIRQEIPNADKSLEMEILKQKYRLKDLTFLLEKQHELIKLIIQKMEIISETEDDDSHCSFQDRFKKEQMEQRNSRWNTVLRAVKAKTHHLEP
Method: (§1) To determine selectivity of the various test compounds for TRPV4, select compounds with activity in the TRPV4 fluorometric cell-based Ca^2+ flux assays were also tested for inhibition of human TRPA1 stably over-expressed in HEK-293 cells, TRPM8 stably over-expressed in HEK-293 cells, TRPV3 stably over-expressed in HEK-293 cells, and TRPV1 stably overexpressed in human lung epithelial (BEAS-2B) cells. The assays were conducted substantially as described above for HEK-293 cells that stably overexpress TRPV4, although for TRPV1, the BEAS-2B cells were maintained in LHC-9 media containing Geneticin (300 μg/mL) and were loaded with Fluo-4AM at room temperature. The agonist for TRPA1 was 2,4-ditert butylphenol (50 μM), for TRPM8 was icilin (50 μM), for TRPV3 was carvacrol (300 μM), and for TRPV1 was nonivamide (5 μM). All other aspects of the assay described above were the same.

TRPM8 = target: T3, TRPM8 (Homo sapiens, UniProt Q7Z2W7); assay: Selectivity Ca2+ flux assay, TRPM8 stably over-expressed in HEK-293 cells; format: cell-based; settings: agonist icilin (50 μM)
T3 construct: expressed in transfected cells
T3 sequence (Q7Z2W7 whole entry): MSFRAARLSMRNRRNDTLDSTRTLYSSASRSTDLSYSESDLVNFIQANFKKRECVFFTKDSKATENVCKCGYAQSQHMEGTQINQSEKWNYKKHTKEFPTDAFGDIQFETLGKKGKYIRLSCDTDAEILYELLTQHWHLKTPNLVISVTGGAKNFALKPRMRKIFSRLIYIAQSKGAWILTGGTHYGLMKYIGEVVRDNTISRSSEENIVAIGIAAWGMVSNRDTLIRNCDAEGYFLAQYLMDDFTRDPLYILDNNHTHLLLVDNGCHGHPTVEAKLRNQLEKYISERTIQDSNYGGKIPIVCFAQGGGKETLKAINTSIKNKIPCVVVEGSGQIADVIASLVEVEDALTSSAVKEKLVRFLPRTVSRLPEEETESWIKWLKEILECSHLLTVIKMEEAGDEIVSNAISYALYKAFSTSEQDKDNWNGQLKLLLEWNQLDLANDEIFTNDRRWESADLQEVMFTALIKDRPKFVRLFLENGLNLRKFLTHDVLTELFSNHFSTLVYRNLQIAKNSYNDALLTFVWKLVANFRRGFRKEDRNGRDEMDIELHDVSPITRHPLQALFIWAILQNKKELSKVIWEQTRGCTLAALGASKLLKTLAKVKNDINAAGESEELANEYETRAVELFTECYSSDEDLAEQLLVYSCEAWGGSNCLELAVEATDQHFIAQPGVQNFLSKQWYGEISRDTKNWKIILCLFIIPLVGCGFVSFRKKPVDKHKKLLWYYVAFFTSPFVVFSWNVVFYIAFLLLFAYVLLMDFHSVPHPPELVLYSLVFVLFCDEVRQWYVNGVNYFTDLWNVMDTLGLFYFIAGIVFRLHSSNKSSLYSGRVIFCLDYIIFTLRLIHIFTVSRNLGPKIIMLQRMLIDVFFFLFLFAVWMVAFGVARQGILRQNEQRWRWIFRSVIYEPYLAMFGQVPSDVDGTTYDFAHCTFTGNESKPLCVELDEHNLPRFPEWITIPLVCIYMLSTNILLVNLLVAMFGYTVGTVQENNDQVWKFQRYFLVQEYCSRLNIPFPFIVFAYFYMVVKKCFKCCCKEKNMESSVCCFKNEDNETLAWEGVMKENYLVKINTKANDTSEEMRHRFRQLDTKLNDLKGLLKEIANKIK
Method: as §1

TRPV3 = target: T4, TRPV3 (Homo sapiens, UniProt Q8NET8); assay: Selectivity Ca2+ flux assay, TRPV3 stably over-expressed in HEK-293 cells; format: cell-based; settings: agonist carvacrol (300 μM)
T4 construct: expressed in transfected cells
T4 sequence (Q8NET8 1-790): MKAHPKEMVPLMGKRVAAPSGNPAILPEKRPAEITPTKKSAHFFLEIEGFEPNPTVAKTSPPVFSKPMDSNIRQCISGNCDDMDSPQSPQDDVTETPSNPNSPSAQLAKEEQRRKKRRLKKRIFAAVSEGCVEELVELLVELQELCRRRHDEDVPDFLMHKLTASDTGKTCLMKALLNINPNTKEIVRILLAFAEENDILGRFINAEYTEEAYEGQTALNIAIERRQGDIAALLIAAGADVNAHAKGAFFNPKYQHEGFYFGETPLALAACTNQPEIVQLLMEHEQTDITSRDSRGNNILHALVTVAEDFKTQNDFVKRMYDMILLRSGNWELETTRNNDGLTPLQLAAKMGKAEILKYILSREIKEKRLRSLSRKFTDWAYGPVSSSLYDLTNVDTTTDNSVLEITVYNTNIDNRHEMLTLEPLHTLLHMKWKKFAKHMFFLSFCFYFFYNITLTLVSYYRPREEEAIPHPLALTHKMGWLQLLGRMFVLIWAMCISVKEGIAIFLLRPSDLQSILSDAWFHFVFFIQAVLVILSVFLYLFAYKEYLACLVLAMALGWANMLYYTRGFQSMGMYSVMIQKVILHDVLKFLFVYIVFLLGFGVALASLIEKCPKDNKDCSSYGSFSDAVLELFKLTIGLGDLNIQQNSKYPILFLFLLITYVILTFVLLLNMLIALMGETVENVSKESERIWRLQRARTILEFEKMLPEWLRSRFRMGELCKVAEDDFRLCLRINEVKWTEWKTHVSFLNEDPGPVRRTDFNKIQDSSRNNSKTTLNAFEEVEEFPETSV
Method: as §1

TRPV1 = target: T5, TRPV1 (Homo sapiens, UniProt Q8NER1); assay: Selectivity Ca2+ flux assay, TRPV1 stably overexpressed in human lung epithelial (BEAS-2B) cells; format: cell-based; settings: agonist nonivamide (5 μM)
T5 construct: expressed in transfected cells
T5 sequence (Q8NER1 whole entry): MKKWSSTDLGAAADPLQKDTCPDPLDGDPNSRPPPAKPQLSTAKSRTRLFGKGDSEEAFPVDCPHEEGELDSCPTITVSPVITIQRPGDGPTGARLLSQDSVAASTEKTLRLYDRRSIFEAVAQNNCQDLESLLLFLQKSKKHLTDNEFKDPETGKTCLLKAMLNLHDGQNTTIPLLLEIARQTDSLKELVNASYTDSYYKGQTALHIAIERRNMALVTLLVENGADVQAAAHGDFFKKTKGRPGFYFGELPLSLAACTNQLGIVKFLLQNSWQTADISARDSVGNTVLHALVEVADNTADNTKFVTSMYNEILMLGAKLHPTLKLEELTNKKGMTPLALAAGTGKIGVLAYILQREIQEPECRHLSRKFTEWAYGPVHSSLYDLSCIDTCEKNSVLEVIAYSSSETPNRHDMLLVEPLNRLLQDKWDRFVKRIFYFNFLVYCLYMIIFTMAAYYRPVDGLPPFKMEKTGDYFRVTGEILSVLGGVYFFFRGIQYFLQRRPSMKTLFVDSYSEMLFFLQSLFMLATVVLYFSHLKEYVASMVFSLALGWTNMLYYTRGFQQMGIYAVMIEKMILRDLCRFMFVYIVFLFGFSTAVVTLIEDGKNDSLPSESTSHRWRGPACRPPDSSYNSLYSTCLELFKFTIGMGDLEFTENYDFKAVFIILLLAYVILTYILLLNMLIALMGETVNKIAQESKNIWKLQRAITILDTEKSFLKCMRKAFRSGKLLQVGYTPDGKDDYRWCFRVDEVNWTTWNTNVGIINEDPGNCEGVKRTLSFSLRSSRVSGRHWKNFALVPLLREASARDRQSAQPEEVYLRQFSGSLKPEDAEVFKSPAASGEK
Method: as §1

[1] = system: intraocular pressure (IOP); settings: applied at 0.3-1.0 mM; Ryskamp et al., Sci Rep 2016; cited from earlier work
[2] = system: intraocular pressure (IOP); assay: In vivo tonometric IOP assay in microbead mouse model of ocular hypertension
[3] = system: intraocular pressure (IOP); settings: OAG-affected dogs; literature; cited from earlier work
[4] = system: intraocular pressure (IOP); assay: In vivo tonometric IOP assay in microbead mouse model of ocular hypertension; settings: FIG. 2 right panel; P<0.01 / P<0.001, two-way ANOVA
Method: FIG. 1 is a graph showing the effect that two concentrations of topical compound 11 (0.01% and 0.1%), 0.5% timolol, and control PBS had on IOP in the microbead (MB) mouse model of ocular hypertension (N=3 separate experiments, with 7-10 mice per experimental cohort). Error bars=±S.E.M. Ocular hypertension in the mouse model of primary open angle glaucoma (POAG) was induced with intracameral injection of polystyrene microbeads. Antagonist stock solutions (10 mM) were prepared in DMSO, the final concentrations were made in PBS diluted to <0.0001% DMSO.
FIG. 2 is a bar chart showing the cumulative data for pre-IOP elevation cohorts of mouse eyes (N≥3 separate experiments, with 7-10 mice per experimental cohort). Left panel: the IOP data are plotted as % of the control value of the timolol-treated eye cohort. Middle panel: MB injection elevated IOP in all experimental cohorts.
A tonometric assay was used to measured IOP changes in mice models of ocular hypertension over a period of weeks following topical application of the compounds.
To prepare the mice models of ocular hypertension, mice were anesthetized with an intraperitoneal (IP) injection of ketamine/xylazine (90 mg/10 mg/kg of body weight). Eye drops of 0.5% proparacaine hydrochloride with 1% tropicamide ophthalmic solution (Bausch & Lomb) were applied to numb and dilate the eyes of the mice. IOP was elevated in the ipsilateral eye by injecting 2 μl of polystyrene microbeads (7.8 μm FluoSpheres; Bangs Laboratories) with a Hamilton syringe into the anterior chamber over 60 seconds. The contralateral eye was injected with phosphate buffered saline (PBS).
A rebound tonometer was used to measure IOP at 1, 2, 6 and 10 hours post-injection after topical administration of Compounds 11 and 52 and timolol, a known medication for treatment of IOP associated with ocular hypertension and glaucoma. The IOP was determined from the means of 10 to 20 readings, following the protocol described in Ryskamp et al., Sci Rep 6:30583, 2016. […]

IC50 (human TRPV4): 0.0006 µM
selectivity for TRPV4 versus TRPA1, TRPM8, TRPV3 and TRPV1 (human TRPV4; comparison of IC50 values): substantially more selective for TRPV4
IC50 (human TRPA1): 20.7 µM
IC50 (TRPM8): 17.8 µM
IC50 (TRPV3): > 100 µM
IC50 (TRPV1): 6 µM
Compound: CNCC1(COc2ccc(C#N)c(F)c2)CN(S(=O)(=O)c2ccc(Cl)cc2Cl)C1 [Compound 16, 4-((1-((2,4-Dichlorophenyl)sulfonyl)-3-((methylamino)methyl)azetidin-3-yl)methoxy)-2-fluorobenzonitrile hydrochloride]

IC50 (human TRPV4): 0.0002 to 0.0006 µM
IC50 (human TRPA1): > 35.5 µM
IC50 (TRPM8): 25.4 µM
IC50 (TRPV3): > 50 µM
IC50 (TRPV1): 5.3 µM
Compound: N#Cc1ccc(OCC2(CNCCO)CN(S(=O)(=O)c3ccc(Cl)cc3Cl)C2)cc1F [Compound 17, 4-((1-((2,4-Dichlorophenyl)sulfonyl)-3-(((2-hydroxyethyl)amino)methyl)azetidin-3-yl)methoxy)-2-fluorobenzonitrile]

Compound: Cc1c(C(=O)Nc2cccc(C(F)(F)F)c2)cc(-c2ccccc2)n1CCCN1CCOCC1 [HC067047, reference compound]
IOP in hypertensive mouse eyes [1]: lowered IOP
IOP levels in MB-treated eyes, intraperitoneal injection ([2]; FIG. 2 right panel, intraperitoneal): significantly lowered IOP levels

Compound: CCN[C@H]1C[C@H](C)S(=O)(=O)c2sc(S(N)(=O)=O)cc21 [dorzolamide HCl]
IOP lowering [3]: 3.8-5.0 mm Hg

Compound: CC(C)(C)NC[C@H](O)COc1nsnc1N1CCOCC1 [timolol, reference compound]
IOP levels in MB-treated eyes, topical application [4]: significantly lowered IOP levels
IOP after topical administration ([2]; mouse model of ocular hypertension, compounds 1 μM and 10 μM, timolol 0.5%, FIG. 1): lowered the IOP
protection of RGCs ([2]; mouse model of ocular hypertension, topical, compounds 1 μM and 10 μM, timolol 0.5%): protected RGCs

IC50 (human TRPV4): 5 µM
Compound: N#Cc1ccc(OCC2(CO)CN(S(=O)(=O)c3ccc(C(F)(F)F)nc3)C2)cc1F [Compound 64, 2-Fluoro-4-((3-(hydroxymethyl)-1-((6-(trifluoromethyl)pyridin-3-yl)sulfonyl)azetidin-3-yl)methoxy)benzonitrile]

IC50 (human TRPV4): 0.0018 µM
Compound: N#Cc1ccc(OCC2(CN[C@H]3C[C@@H](O)C3)CN(S(=O)(=O)c3ccc(Cl)cc3Cl)C2)cc1F [Compound 38, 4-((1-((2,4-Dichlorophenyl)sulfonyl)-3-((((cis)-3-hydroxycyclobutyl)amino)methyl)azetidin-3-yl)methoxy)-2-fluorobenzonitrile hydrochloride]

IC50 (human TRPV4): 0.0134 µM
Compound: N#Cc1ccc(OCC2(CNC[C@H]3CCCO3)CN(S(=O)(=O)c3ccc(Cl)cc3Cl)C2)cc1F [Compound 40, (R)-4-((1-((2,4-dichlorophenyl)sulfonyl)-3-((((tetrahydrofuran-2-yl)methyl)amino)methyl)azetidin-3-yl)methoxy)-2-fluorobenzonitrile hydrochloride]

IC50 (human TRPV4): 0.0003 µM
Compound: N#Cc1ccc(OCC2(CN[C@H]3CC[C@H](O)CC3)CN(S(=O)(=O)c3ccc(Cl)cc3Cl)C2)cc1F [Compound 41, 4-((1-((2,4-Dichlorophenyl)sulfonyl)-3-((((trans)-4-hydroxycyclohexyl)amino)methyl)azetidin-3-yl)methoxy)-2-fluorobenzonitrile hydrochloride]

IC50 (human TRPV4): 5 µM
Compound: CS(=O)(=O)c1ccc(S(=O)(=O)N2CC(CO)(COc3ccc(C#N)c(F)c3)C2)cc1 [Compound 69, 2-Fluoro-4-((3-(hydroxymethyl)-1-((4-(methylsulfonyl)phenyl)sulfonyl)azetidin-3-yl)methoxy)benzonitrile]

IC50 (human TRPV4): 3.35 µM
Compound: CC(C)(C)OC(=O)NC1(COc2ccc(C#N)c(F)c2)CN(S(=O)(=O)c2ccc(Cl)cc2Cl)C1 [Compound 51, tert-Butyl (3-((4-cyano-3-fluorophenoxy)methyl)-1-((2,4-dichlorophenyl)sulfonyl)azetidin-3-yl)carbamate]

IC50 (human TRPV4): ~5 µM
Compound: O=S(=O)(c1ccc(Cl)cc1Cl)N1CC(CO)(COc2cccnc2)C1 [Compound 97, (1-((2,4-Dichlorophenyl)sulfonyl)-3-((pyridin-3-yloxy)methyl)azetidin-3-yl)methanol]

IC50 (human TRPV4): ~3 µM
Compound: O=S(=O)(c1ccc(Cl)cc1Cl)N1CC(CO)(COc2ccnc(Cl)c2)C1 [Compound 94, (3-(((2-Chloropyridin-4-yl)oxy)methyl)-1-((2,4-dichlorophenyl)sulfonyl)azetidin-3-yl)methanol]
